Laboratory results reported in patent publication US10597392B2, “Tetrahydropyridopyrazines as modulators of GPR6” (Takeda Pharmaceutical Corporation Limited, priority 2014, dated 2020).

Target: T1, GPR6 receptor expressed in CHO-K1 cells (Homo sapiens, UniProt P46095)
T1 construct: expressed in transfected cells
Experiment: Inhibition of cAMP Activity of GPR6 In Vitro Assay
Format: cell-based
Conditions: inhibition of constitutive cAMP activity of GPR6 in CHO-K1 cells, 45 min incubation, HTRF cAMP detection
Description: Inhibition of cAMP Activity of GPR6 In Vitro Assay
This cell based assay measures the ability of compounds to inhibit the constitutive cAMP activity of GPR6 receptor expressed in CHO-K1 cells. CHO cells were stably expressed with GPR6 receptor, whose expression is controlled by a tetracycline inducable element. The cells were cultured in medium containing F12K, 10% FBS, 1% Penn/Strep, 200 ug/mL Hygromycin. GPR6 receptor expression was induced for 20 hrs with 2 µg/ml doxycycline (sigma D9891) in growth media. After addition of doxycycline cells were plated at a density of 450-750 cells per well in 96-well half-volume black tissue culture plates (Costar) and placed in an incubator (37°, 5% CO2) for 20 hours prior to cAMP assays.
Culture media was removed from cells and they were washed with 50 µL/well of Ringer's Buffer (MgCl2 0.047 mg/mL, NaH2PO4 0.18 mg/mL, Na2HPO4 0.1 mg/mL, KCl 0.34 mg/mL, NaHCO3 1.26 mg/mL, D-glucose 1.8 mg/mL, NaCl 7 mg/mL; pH=7.4). Compounds suspended in DMSO were diluted in Ringer's Buffer containing 0.5% fatty acid free BSA plus 300 μM IBMX and incubated on cells for 45 min at 37° and 5% CO2. After incubation cells were incubated for 10 min at room temp with Eu-cAMP tracer solution from a Perkin Elmer Lance HTRF Ultra cAMP assay kit (TRF0263). Then ULight™-anti-cAMP solution from the Lance HTRF kit was added and incubated on a shaker at room temp for 1 hour prior to HTRF detection in a Perkin Elmer Envision plate reader.
IC50 curves were generated with a four-parameter logistic equation using GraphPad Prism 5.03.

T1 sequence (P46095 whole entry): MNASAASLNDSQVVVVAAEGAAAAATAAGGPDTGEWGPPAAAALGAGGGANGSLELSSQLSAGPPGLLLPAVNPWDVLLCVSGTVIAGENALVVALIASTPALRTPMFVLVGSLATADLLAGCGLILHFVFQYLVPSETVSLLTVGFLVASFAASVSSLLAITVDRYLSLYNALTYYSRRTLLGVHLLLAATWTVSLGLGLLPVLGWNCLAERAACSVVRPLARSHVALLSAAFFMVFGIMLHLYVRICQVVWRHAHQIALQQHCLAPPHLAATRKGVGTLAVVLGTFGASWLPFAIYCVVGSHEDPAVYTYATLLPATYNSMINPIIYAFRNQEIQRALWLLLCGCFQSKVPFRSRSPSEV

Row | SMILES | EC50 [nM]
1 | Cc1cc2nc(NC3CC3)c(N3CCC(Oc4ccc(OC(F)F)cc4F)CC3)nc2cn1 [Example 19, N-cyclopropyl-3-(4-(4-(difluoromethoxy)-2-fluorophenoxy)piperidin-1-yl)-7-methylpyrido[3,4-b]pyrazin-2-amine] | 62.6
2 | Cc1cc2nc(N3CCN(Cc4ccc(OC(F)F)cc4F)CC3)c(NC3CC3)nc2cn1 [Example 47, N-cyclopropyl-2-(4-(4-(difluoromethoxy)-2-fluorobenzyl)piperazin-1-yl)-7-methylpyrido[3,4-b]pyrazin-3-amine] | > 1000
3 | Cc1cc2nc(N3CCC(Oc4ccc(OC(F)F)cc4F)CC3)c(N[C@@H]3CCOC3)nc2cn1 [Example 40, (R)-2-(4-(4-(difluoromethoxy)-2-fluorophenoxy)piperidin-1-yl)-7-methyl-N-(tetrahydrofuran-3-yl)pyrido[3,4-b]pyrazin-3-amine] | > 1000
4 | COc1ccc(CN2CCN(c3nc4cnc(C)cc4nc3NC(C)C)CC2)c(F)c1 [Example 22, 3-(4-(2-fluoro-4-methoxybenzyl)piperazin-1-yl)-N-isopropyl-7-methylpyrido[3,4-b]pyrazin-2-amine] | 37.3
5 | Cc1cc2nc(N3CCN(Cc4ccc(OC(F)F)cc4F)CC3)c(NC(C)C)nc2cn1 [Example 46, 2-(4-(4-(difluoromethoxy)-2-fluorobenzyl)piperazin-1-yl)-N-isopropyl-7-methylpyrido[3,4-b]pyrazin-3-amine] | > 1000
6 | Cc1cc2nc(N3CCC(Oc4ccc(F)cc4F)CC3)c(N[C@@H]3CCOC3)nc2cn1 [Example 36] | 76.3

Results, then the compound that gave them:

Row | EC50 [nM] | SMILES
7 | > 1000 | Cc1cc2nc(N[C@H]3CCOC3)c(N3CCN(Cc4ccc(OC(F)F)cc4F)CC3)nc2cn1 [Example 29, (S)-3-(4-(4-(difluoromethoxy)-2-fluorobenzyl)piperazin-1-yl)-7-methyl-N-(tetrahydrofuran-3-yl)pyrido[3,4-b]pyrazin-2-amine]
8 | 21.9 | Cc1cc2nc(NC3COC3)c(N3CCN(Cc4ccc(F)cc4F)CC3)nc2cn1 [Example 15, 3-(4-(2,4-difluorobenzyl)piperazin-1-yl)-7-methyl-N-(oxetan-3-yl)pyrido[3,4-b]pyrazin-2-amine]
9 | > 1000 | Cc1cc2nc(N3CCN(Cc4ccc(OC(F)F)cc4F)CC3)c(N[C@H]3CCOC3)nc2cn1 [Example 49, (S)-2-(4-(4-(difluoromethoxy)-2-fluorobenzyl)piperazin-1-yl)-7-methyl-N-(tetrahydrofuran-3-yl)pyrido[3,4-b]pyrazin-3-amine]
10 | 102 | Cc1cc2nc(N3CCN(Cc4ccc(F)cc4F)CC3)c(N[C@@H]3CCOC3)nc2cn1 [Example 33]
11 | > 1000 | COc1ccc(CN2CCN(c3nc4cc(C)ncc4nc3N[C@H]3CCOC3)CC2)c(F)c1 [Example 45, (S)-2-(4-(2-fluoro-4-methoxybenzyl)piperazin-1-yl)-7-methyl-N-(tetrahydrofuran-3-yl)pyrido[3,4-b]pyrazin-3-amine]
12 | 446 | Cc1cc2nc(NC3CC3)c(N3CCN(Cc4ccc(OC(F)F)cc4F)CC3)nc2cn1 [Example 27, N-cyclopropyl-3-(4-(4-(difluoromethoxy)-2-fluorobenzyl)piperazin-1-yl)-7-methylpyrido[3,4-b]pyrazin-2-amine]
13 | 311 | COc1ccc(CN2CCN(c3nc4cnc(C)cc4nc3N[C@@H]3CCOC3)CC2)c(F)c1 [Example 24, (R)-3-(4-(2-fluoro-4-methoxybenzyl)piperazin-1-yl)-7-methyl-N-(tetrahydrofuran-3-yl)pyrido[3,4-b]pyrazin-2-amine]
14 | > 1000 | Cc1cc2nc(N3CCN(Cc4ccc(OC(F)F)cc4F)CC3)c(N[C@@H]3CCOC3)nc2cn1 [Example 48, (R)-2-(4-(4-(difluoromethoxy)-2-fluorobenzyl)piperazin-1-yl)-7-methyl-N-(tetrahydrofuran-3-yl)pyrido[3,4-b]pyrazin-3-amine]
15 | > 1000 | COc1ccc(CN2CCN(c3nc4cc(C)ncc4nc3N[C@@H]3CCOC3)CC2)c(F)c1 [Example 44, (R)-2-(4-(2-fluoro-4-methoxybenzyl)piperazin-1-yl)-7-methyl-N-(tetrahydrofuran-3-yl)pyrido[3,4-b]pyrazin-3-amine]
